Where only a bound is given, the exact number is not on record here.

The test system of this test is HCV 1b_Huh-Luc/Neo-ET cell line persistently expressing a bicistronic genotype 1b replicon in Huh 7 cells. Nature of the test: HCV replicon assay, luciferase enzyme activity readout. The test is classed as cell-based. The settings on record: Hepatitis C virus, 72 h incubation, average EC50 range, read-out: Inhibition of HCV genotype 1b. As for the experimental part: Biological activity of the compounds of the invention was determined using an HCV replicon assay. The HCV 1b_Huh-Luc/Neo-ET cell line persistently expressing a bicistronic genotype 1b replicon in Huh 7 cells was obtained from ReBLikon GMBH. This cell line was used to test compound inhibition using luciferase enzyme activity readout as a measurement of compound inhibition of replicon levels.
On Day 1 (the day after plating cells), each compound is added in triplicate to the cells. Plates are incubated for 72 h prior to determining luciferase levels. Enzyme activity was measured using a Bright-Glo Kit (cat. number E2620) manufactured by Promega Corporation. The following equation was used to generate a percent control value for each compound. % Control=(Compound Luciferase Level/Control Luciferase Level)*100
The EC50 value was determined using GraphPad Prism and the following equation: Y=Bottom asymptote+(Top asymptote−Bottom asymptote)/(1+10^((Log EC50−X)*HillSlope))
EC50 values of compounds are determined several times in the replicon assay to generate average EC50 values. […]
Take `COC(=O)N[C@H](C(=O)N1CCC[C@H]1c1ncc(-c2ccc3nc4cc(-c5cnc([C@@H]6CCCN6C(=O)[C@@H](NC(=O)OC)C(C)C)[nH]5)ccc4nc3c2)[nH]1)C(C)C` [Compound 1]: the EC50 is less than 1 nM.
Under `COC(=O)N[C@@H](C(=O)N1CCC[C@H]1c1ncc(-c2ccc3nc4cc(-c5cnc([C@@H]6CCCN6C(=O)[C@H](NC(=O)OC)c6ccccc6)[nH]5)ccc4nc3c2)[nH]1)c1ccccc1` [Compound 2] stands less than 1 nM.
For `COC(=O)N[C@H](C(=O)N1CCC[C@H]1c1ncc(-c2ccc3c(c2)Oc2ccc(-c4cnc([C@@H]5CCCN5C(=O)[C@@H](NC(=O)OC)C(C)C)[nH]4)cc2O3)[nH]1)C(C)C` [Compound 3] the value was less than 1 nM.
As to `COC(=O)N[C@H](C(=O)N1CCC[C@H]1c1ncc(-c2ccc3c(c2)Cc2cc(-c4cnc([C@@H]5CCCN5C(=O)[C@@H](NC(=O)OC)C(C)C)[nH]4)ccc2O3)[nH]1)C(C)C` [Compound 4], the EC50 lay within 10 to 999 nM.
Under `COC(=O)N[C@@H](C(=O)N1CCC[C@H]1c1ncc(-c2ccc3c(c2)Cc2cc(-c4cnc([C@@H]5CCCN5C(=O)[C@H](NC(=O)OC)c5ccccc5)[nH]4)ccc2O3)[nH]1)c1ccccc1` [Compound 5] stands less than 1 nM; under `COC(=O)N[C@H](C(=O)N1CCC[C@H]1c1ncc(-c2ccc3c(c2)Cc2ccc(-c4cnc([C@@H]5CCCN5C(=O)[C@@H](NC(=O)OC)C(C)C)[nH]4)cc2O3)[nH]1)C(C)C` [Compound 6], less than 1 nM; under `COC(=O)N[C@H](C(=O)N1CCC[C@H]1c1ncc(-c2ccc3c(c2)CCc2cc(-c4cnc([C@@H]5CCCN5C(=O)[C@@H](NC(=O)OC)C(C)C)[nH]4)ccc2O3)[nH]1)C(C)C` [Compound 7], less than 1 nM.
With `COC(=O)N[C@H](C(=O)N1CCC[C@H]1c1ncc(-c2ccc3c(=O)c4cc(-c5cnc([C@@H]6CCCN6C(=O)[C@@H](NC(=O)OC)C(C)C)[nH]5)ccc4oc3c2)[nH]1)C(C)C` [Compound 8], the EC50 is less than 1 nM.
For `CC(C)(C)OC(=O)N1CCC[C@H]1c1ncc(-c2ccc3c(=O)c4cc(-c5cnc([C@@H]6CCCN6C(=O)OC(C)(C)C)[nH]5)ccc4oc3c2)[nH]1` [Compound 9] the value was 10 to 999 nM; for `COC(=O)N[C@H](C(=O)N1CCC[C@H]1c1ncc(-c2ccc3c(c2)Oc2ccc(-c4cnc([C@@H]5CCCN5C(=O)[C@@H](NC(=O)OC)C(C)C)[nH]4)cc2C3(C)C)[nH]1)C(C)C` [Compound 10], less than 1 nM; for `COC(=O)N[C@H](C(=O)N1CCC[C@H]1c1ncc(-c2ccc3c(c2)c(=O)c2ccc(-c4cnc([C@@H]5CCCN5C(=O)[C@@H](NC(=O)OC)C(C)C)[nH]4)cc2n3C)[nH]1)C(C)C` [Compound 11], less than 1 nM.
Under `COC(=O)N[C@H](C(=O)N1CCC[C@H]1c1ncc(-c2ccc3c(c2)CCc2ccc(-c4cnc([C@@H]5CCCN5C(=O)[C@@H](NC(=O)OC)C(C)C)[nH]4)cc2O3)[nH]1)C(C)C` [Compound 12] stands less than 1 nM; under `COC(=O)N[C@H](C(=O)N1CCC[C@H]1c1ncc(-c2ccc3c(c2)CN(C)c2ccc(-c4cnc([C@@H]5CCCN5C(=O)[C@@H](NC(=O)OC)C(C)C)[nH]4)cc2CN3C)[nH]1)C(C)C` [Compound 13], less than 1 nM.
Turning to `COC(=O)N[C@H](C(=O)N1CCC[C@H]1c1ncc(-c2ccc3c(c2)Oc2ccc(-c4cnc([C@@H]5CCCN5C(=O)[C@@H](NC(=O)OC)C(C)C)[nH]4)cc2C(=O)N3)[nH]1)C(C)C` [Compound 14], the EC50 was 10 to 999 nM.
For `COC(=O)N[C@H](C(=O)N1CCC[C@H]1c1ncc(-c2ccc3c(=O)c4cc(-c5cnc([C@@H]6CCCN6C(=O)[C@H](NC(=O)OC)c6ccccc6)[nH]5)ccc4oc3c2)[nH]1)C(C)C` [Compound 15] the value was less than 1 nM.
For `COC(=O)N[C@H](C(=O)N1CCC[C@H]1c1ncc(-c2ccc3c(=O)c4cc(-c5cnc([C@@H]6CCCN6C(=O)[C@@H](NC(=O)OC)C6CCOCC6)[nH]5)ccc4oc3c2)[nH]1)C(C)C` [Compound 16] the value was less than 1 nM; for `COC(=O)N[C@H](C(=O)N1CCC[C@H]1c1ncc(-c2ccc3oc4cc(-c5cnc([C@@H]6CCCN6C(=O)[C@@H](NC(=O)OC)C6CCOCC6)[nH]5)ccc4c(=O)c3c2)[nH]1)C(C)C` [Compound 17], less than 1 nM; for `COC(=O)N[C@H](C(=O)N1CCC[C@H]1c1ncc(-c2ccc3oc4cc(-c5cnc([C@@H]6CCCN6C(=O)[C@H](NC(=O)OC)c6ccccc6)[nH]5)ccc4c(=O)c3c2)[nH]1)C(C)C` [Compound 18], less than 1 nM.
Take `COC(=O)N[C@H](C(=O)N1CCC[C@H]1c1ncc(-c2ccc3c(=O)c4cc(-c5cnc([C@@H]6CCCN6C(=O)[C@H](NC(=O)OC6CCOCC6)c6ccccc6)[nH]5)ccc4oc3c2)[nH]1)C(C)C` [Compound 19]: the EC50 was less than 1 nM.
For the compound `COC(=O)N[C@@H](C)C(=O)N1CCC[C@H]1c1ncc(-c2ccc3oc4cc(-c5cnc([C@@H]6CCCN6C(=O)[C@@H](NC(=O)OC)C(C)C)[nH]5)ccc4c(=O)c3c2)[nH]1` [Compound 20], the EC50 was less than 1 nM.
Take `COC(=O)N[C@H](C(=O)N1CCC[C@H]1c1ncc(-c2ccc3oc4cc(-c5cnc([C@@H]6CCCN6C(=O)[C@H](NC(=O)OC6CCOCC6)c6ccccc6)[nH]5)ccc4c(=O)c3c2)[nH]1)C(C)C` [Compound 21]: the EC50 is less than 1 nM.
Under `COC(=O)N[C@H](C(=O)N1CCC[C@H]1c1ncc(-c2ccc3oc4cc(-c5cnc([C@@H]6CCCN6C(=O)[C@@H](NC(=O)OC)C(C)C)[nH]5)c(F)cc4c(=O)c3c2)[nH]1)C(C)C` [Compound 22] stands less than 1 nM; under `COC(=O)N[C@H](C(=O)N1CCC[C@H]1c1ncc(-c2ccc3oc4cc(-c5cnc([C@@H]6CCCN6C(=O)[C@@H](NC(=O)OC)C6CCOCC6)[nH]5)c(F)cc4c(=O)c3c2)[nH]1)C1CCOCC1` [Compound 23], less than 1 nM; under `COC(=O)N[C@@H](C(=O)N1CCC[C@H]1c1ncc(-c2ccc3oc4cc(-c5cnc([C@@H]6CCCN6C(=O)[C@H](NC(=O)OC)c6ccccc6)[nH]5)c(F)cc4c(=O)c3c2)[nH]1)c1ccccc1` [Compound 24], less than 1 nM.
In the case of `O=C(N[C@@H](C(=O)N1CCC[C@H]1c1ncc(-c2ccc3oc4cc(-c5cnc([C@@H]6CCCN6C(=O)[C@H](NC(=O)OC6CCOCC6)c6ccccc6)[nH]5)c(F)cc4c(=O)c3c2)[nH]1)c1ccccc1)OC1CCOCC1` [Compound 25], the EC50 is less than 1 nM.
Turning to `COC(=O)N[C@H](C(=O)N1CCC[C@H]1c1ncc(-c2ccc3c(c2)Oc2ccc(-c4cnc([C@@H]5CCCN5C(=O)[C@@H](NC(=O)OC)C(C)C)[nH]4)cc2C32CC2)[nH]1)C(C)C` [Compound 26], the EC50 was less than 1 nM.
With `COC(=O)N[C@H](C(=O)N1CCC[C@H]1c1ncc(-c2cc3oc4ccc(-c5cnc([C@@H]6CCCN6C(=O)[C@H](NC(=O)OC)c6ccccc6)[nH]5)cc4c(=O)c3cc2F)[nH]1)C(C)C` [Compound 27], the EC50 is less than 1 nM.
For `COC(=O)N[C@H](C(=O)N1CCC[C@H]1c1ncc(-c2cc3oc4ccc(-c5cnc([C@@H]6CCCN6C(=O)[C@@H](NC(=O)OC)C6CCOCC6)[nH]5)cc4c(=O)c3cc2F)[nH]1)C(C)C` [Compound 28] the value was less than 1 nM; for `COC(=O)N[C@H](C(=O)N1CCC[C@H]1c1ncc(-c2cc3c(cc2F)Cc2cc(-c4cnc([C@@H]5CCCN5C(=O)[C@@H](NC(=O)OC)[C@@H](C)OC)[nH]4)ccc2O3)[nH]1)C(C)C` [Compound 29], less than 1 nM.

The values are drawn from patent publication US9150554B2, “Fused ring inhibitors of hepatitis C” (Presidio Pharmaceuticals, Inc., priority 2009, dated 2015).
